Results published in patent US12492199B2, “Pyridopyrimidines as histamine H4-receptor inhibitors” (FAES FARMA, S.A., priority 2018, dated 2025).
Where two headings read alike, the source gives them in different places.

What was measured:
[1] = target: human H1 receptor (Homo sapiens (Human), UniProt P35367); experiment: H1 Binding assay ([3H]pyrilamine competition, membranes from CHO-K1 cells transfected with human H1 receptor); details: affinity for human histamine H1 receptor, class symbols; — not defined in key; read-out: ACTIVITY CLASS hH1R (Ki)
Sequence of human H1 receptor (P35367 whole entry): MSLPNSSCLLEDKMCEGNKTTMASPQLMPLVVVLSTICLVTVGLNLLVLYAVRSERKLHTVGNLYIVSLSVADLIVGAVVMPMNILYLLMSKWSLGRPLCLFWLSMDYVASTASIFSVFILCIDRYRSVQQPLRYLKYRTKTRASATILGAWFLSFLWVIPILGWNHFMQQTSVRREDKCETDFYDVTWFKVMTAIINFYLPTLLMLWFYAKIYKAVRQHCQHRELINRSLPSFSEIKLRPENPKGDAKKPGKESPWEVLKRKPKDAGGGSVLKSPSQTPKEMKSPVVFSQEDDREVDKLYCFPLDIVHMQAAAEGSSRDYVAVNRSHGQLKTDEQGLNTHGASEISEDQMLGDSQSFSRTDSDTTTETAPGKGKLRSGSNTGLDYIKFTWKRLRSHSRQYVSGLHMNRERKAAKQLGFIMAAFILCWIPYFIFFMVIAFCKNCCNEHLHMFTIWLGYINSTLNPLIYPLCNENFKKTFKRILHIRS
Procedure: Cetirizine and pyrilamine were supplied by Sigma-Aldrich. Bilastine was synthetized at FAES FARMA facilities (Lamiako-Leioa, Spain), chemical reagents such as Na2HPO4, KH2PO4 or polyvinylpyrrolidone as well as multiscreen microplates (MSFBN6B50) were purchased from Merck Millipore, scintillation liquid (Microscint 20), human H1 membranes (ES-390-M400UA) and ^3H-pirilamina (NET 594) were provided by PerkinElmer.
Affinity for histamine H1-receptor was determined by H1 Binding assay: • Membranes form CHO-K1 cells transfected with human H1 receptor and microplates of 96-well format were used. • For competition studies cell membranes were homogenated in 50 mM phosphate buffer (Na2HPO4 and KH2PO4 mixed to pH 7.4 at 25° C.) and added to the microplate at the concentration of approximately 5 μg/well. […] Non specific binding was defined using 10 μM unlabeled pyrilamine and the total incubation volume was 275 μl per well. • Incubations were performed until gentle agitation at 25° C. for 60 min and concluding with a rapid vacuum filtration using pre-soaked filters (5% polyvinylpyrrolidone). After ten rapid washes with cold wash buffer (50 mM phosphate buffer) the filter plates were dried at room temperature for 30 min. • Finally, scintillation liquid (Microscint 20) was added to the whole microplate in order to measure the radioactivity retained on the filters using an specific scintillation counter (Top Count—NXT). Curve analysis and values of IC50 were determined using Grap Pad Prism program (GraphPad Software, San Diego, USA). • Test compounds were initially evaluated at one concentration (1 μM) and thereafter if significant displacement was observed (>40%) a concentration-response curve was conducted. Each test concentration was measured in triplicate. • As reference compounds pyrilamine, cetirizine and Bilastine were used.

[2] = target: human H4 receptor (Homo sapiens (Human), UniProt Q9H3N8); experiment: H4 Binding assay ([3H]histamine competition, membranes from CHO-K1 cells transfected with human H4 receptor)
Procedure: Affinity for histamine H4-receptor was determined by H4 Binding assay:
• Membranes from CHO-K1 cells transfected with human H4 receptor and microplates of 96-well format were used. • For competition studies cell membranes were homogenated in Tris-HCl 50 mM, EDTA 5 mM, pH 7.4 and added to the microplate at the concentration of approximately 15 μg/well. […] Non specific binding was defined using 10 μM unlabeled histamine and the total incubation volume was 275 μl per well. • Incubations were performed under gentle agitation at 25° C. for 60 min and concluding with a rapid vacuum filtration using pre-soaked filters (0.5% polyethylenimine). After ten rapid washes with cold wash buffer (50 mM Tris-HCl buffer) the filter plates were dried at room temperature for 30 min. • Finally, scintillation liquid (Microscint 20) was added to the whole microplate in order to measure the radioactivity reattained on the filters using a specific scintillation counter (Top Count—NXT). […] H1 Binding Assay Materials

[3] = affinity for human histamine H4 receptor, class symbols, read-out: ACTIVITY CLASS hH4R (Ki)

Row | Ki [1] [nM] | Ki [2, 3] [nM] | SMILES | Ki [2] [nM]
1 | < 1000 | < 100 | CN1CCN(c2nc(NCCS(=O)(=O)Nc3ccccc3Cl)c3cc(Cl)ncc3n2)CC1 [Example 72, 2-((6-chloro-2-(4-methylpiperazin-1-yl)pyrido[3,4-d]pyrimidin-4-yl)amino)-N-(2-chlorophenyl)ethane-1-sulfonamide] | –
2 | < 1000 | < 100 | CN1CCN(c2nc(NCCS(=O)(=O)c3ccccc3)c3cc(Cl)ncc3n2)CC1 [Example 93, 6-chloro-2-(4-methylpiperazin-1-yl)-N-(2-(phenylsulfonyl)ethyl)pyrido[3,4-d]pyrimidin-4-amine] | –
3 | < 1000 | < 1000 | CN1CCN(c2nc(NCc3ccsc3)c3cc(Cl)ncc3n2)CC1 [Example 5, 6-chloro-2-(4-methylpiperazin-1-yl)-N-(thiophen-3-ylmethyl)pyrido[3,4-d]pyrimidin-4-amine] | –
4 | < 1000 | < 100 | CN1CCN(c2nc(NCC[S+]([O-])Cc3ccccc3)c3cc(Cl)ncc3n2)CC1 (centres unmarked) [Example 95, N-(2-(benzylsulfinyl)ethyl)-6-chloro-2-(4-methylpiperazin-1-yl)pyrido[3,4-d]pyrimidin-4-amine] | –
5 | < 1000 | < 100 | Clc1cc2c(NCc3cccs3)nc(N3CCNCC3)nc2cn1 [Example 24, 6-chloro-2-(piperazin-1-yl)-N-(thiophen-2-ylmethyl)pyrido[3,4-d]pyrimidin-4-amine] | –
6 | < 1000 | < 1000 | CCCc1cc2c(NCc3cccs3)nc(N3CCN(C)CC3)nc2cn1 [Example 49, 2-(4-methylpiperazin-1-yl)-6-propyl-N-(thiophen-2-ylmethyl)pyrido[3,4-d]pyrimidin-4-amine] | –
7 | – | < 100 | Cc1ccc(NS(=O)(=O)CCNc2nc(N3CCN(C)CC3)nc3cnc(Cl)cc23)cc1 [Example 84, 2-((6-chloro-2-(4-methylpiperazin-1-yl)pyrido[3,4-d]pyrimidin-4-yl)amino)-N-(p-tolyl)ethane-1-sulfonamide] | –
8 | – | < 100 | CN1CCN(c2nc(NCCS(=O)(=O)Nc3cccnc3)c3cc(Cl)ncc3n2)CC1 [Example 86, 2-((6-chloro-2-(4-methylpiperazin-1-yl)pyrido[3,4-d]pyrimidin-4-yl)amino)-N-(pyridin-3-yl)ethane-1-sulfonamide] | –
9 | – | < 1000 | Cc1cc(NS(=O)(=O)CCNc2nc(N3CCN(C)CC3)nc3cnc(Cl)cc23)n(C)n1 [Example 90, 2-((6-chloro-2-(4-methylpiperazin-1-yl)pyrido[3,4-d]pyrimidin-4-yl)amino)-N-(1,3-dimethyl-1H-pyrazol-5-yl)ethane-1-sulfonamide] | –
10 | – | < 100 | Cc1ccccc1NS(=O)(=O)CCNc1nc(N2CCN(C)CC2)nc2cnc(Cl)cc12 [Example 73, 2-((6-chloro-2-(4-methylpiperazin-1-yl)pyrido[3,4-d]pyrimidin-4-yl)amino)-N-(o-tolyl)ethane-1-sulfonamide] | –
11 | – | < 100 | O=S(=O)(CCNc1nc(N2CCN3CCCC3C2)nc2cnc(Cl)cc12)N1CCOCC1 (centres unmarked) [Example 38, 6-chloro-2-(hexahydropyrrolo[1,2-a]pyrazin-2(1H)-yl)-N-(2-(morpholinosulfonyl)ethyl)pyrido[3,4-d]pyrimidin-4-amine] | –
12 | – | < 1000 | Cc1cc2c(NCc3cccs3)nc(N3CCN(C)CC3)nc2cn1 [Example 46, 6-methyl-2-(4-methylpiperazin-1-yl)-N-(thiophen-2-ylmethyl)pyrido[3,4-d]pyrimidin-4-amine] | –
13 | – | < 100 | Cc1cccc(NS(=O)(=O)CCNc2nc(N3CCN(C)CC3)nc3cnc(Cl)cc23)c1 [Example 79, 2-((6-chloro-2-(4-methylpiperazin-1-yl)pyrido[3,4-d]pyrimidin-4-yl)amino)-N-(m-tolyl)ethane-1-sulfonamide] | –
14 | – | < 1000 | CC(C)c1cc2c(NCCc3cccs3)nc(N3CCN(C)CC3)nc2cn1 [Example 53, 6-isopropyl-2-(4-methylpiperazin-1-yl)-N-(2-(thiophen-2-yl)ethyl)pyrido[3,4-d]pyrimidin-4-amine] | –
15 | – | < 1000 | CNC(=O)CCNc1nc(N2CCN(C)CC2)nc2cnc(Cl)cc12 [Example 98, 3-((6-chloro-2-(4-methylpiperazin-1-yl)pyrido[3,4-d]pyrimidin-4-yl)amino)-N-methylpropanamide] | –
16 | – | < 100 | CN1CCN(c2nc(NCCS(=O)(=O)Nc3ccccc3)c3cc(Cl)ncc3n2)CC1 [Example 16, 2-((6-chloro-2-(4-methylpiperazin-1-yl)pyrido[3,4-d]pyrimidin-4-yl)amino)-N-phenylethane-1-sulfonamide] | –
17 | – | < 100 | CC(C)c1cc2c(NCc3cccs3)nc(N3CCN(C)CC3)nc2cn1 [Example 52, 6-isopropyl-2-(4-methylpiperazin-1-yl)-N-(thiophen-2-ylmethyl)pyrido[3,4-d]pyrimidin-4-amine] | –
18 | – | < 1000 | CN1CCN(c2nc(NCc3nccs3)c3cc(Cl)ncc3n2)CC1 [Example 7, 6-chloro-2-(4-methylpiperazin-1-yl)-N-(thiazol-2-ylmethyl)pyrido[3,4-d]pyrimidin-4-amine] | –
19 | – | < 1000 | CN1CCN(c2nc(NCCc3cccs3)c3cc(Cl)ncc3n2)CC1 [Example 6, 6-chloro-2-(4-methylpiperazin-1-yl)-N-(2-(thiophen-2-yl)ethyl)pyrido[3,4-d]pyrimidin-4-amine] | –
20 | – | < 1000 | CN1CCN(c2nc(NCCS(=O)(=O)Nc3ccc(C(F)(F)F)cc3)c3cc(Cl)ncc3n2)CC1 [Example 83, 2-((6-chloro-2-(4-methylpiperazin-1-yl)pyrido[3,4-d]pyrimidin-4-yl)amino)-N-(4-(trifluoromethyl)phenyl)ethane-1-sulfonamide] | –
21 | – | < 100 | O=S(=O)(CCNc1nc(N2CCNCC2)nc2cnc(Cl)cc12)Nc1ccccc1 [Example 26, 2-((6-chloro-2-(piperazin-1-yl)pyrido[3,4-d]pyrimidin-4-yl)amino)-N-phenylethane-1-sulfonamide] | –
22 | – | < 1000 | CN1CCN(c2nc(NCCS(=O)(=O)Nc3cccc(OC(F)(F)F)c3)c3cc(Cl)ncc3n2)CC1 [Example 77, 2-((6-chloro-2-(4-methylpiperazin-1-yl)pyrido[3,4-d]pyrimidin-4-yl)amino)-N-(3-(trifluoromethoxy)phenyl)ethane-1-sulfonamide] | –
23 | – | < 100 | COc1cccc(NS(=O)(=O)CCNc2nc(N3CCN(C)CC3)nc3cnc(Cl)cc23)c1 [Example 80, 2-((6-chloro-2-(4-methylpiperazin-1-yl)pyrido[3,4-d]pyrimidin-4-yl)amino)-N-(3-methoxyphenyl)ethane-1-sulfonamide] | –
24 | – | < 100 | CN1CCN(c2nc(NCCS(N)(=O)=O)c3cc(Cl)ncc3n2)CC1 [Example 71, 2-((6-chloro-2-(4-methylpiperazin-1-yl)pyrido[3,4-d]pyrimidin-4-yl)amino)ethane-1-sulfonamide] | –
25 | – | < 1000 | CN1CCN(c2nc(NCCS(=O)(=O)Nc3ccccc3N)c3cc(Cl)ncc3n2)CC1 [Example 75, N-(2-aminophenyl)-2-((6-chloro-2-(4-methylpiperazin-1-yl)pyrido[3,4-d]pyrimidin-4-yl)amino)ethane-1-sulfonamide] | –
26 | – | < 100 | O=S(=O)(CCNc1nc(N2CCNCC2)nc2cnc(Cl)cc12)N1CCOCC1 [Example 28, 6-chloro-N-(2-(morpholinosulfonyl)ethyl)-2-(piperazin-1-yl)pyrido[3,4-d]pyrimidin-4-amine] | –
27 | – | < 100 | CN1CCN(c2nc(NCCS(=O)(=O)Nc3cccc(C(F)(F)F)c3)c3cc(Cl)ncc3n2)CC1 [Example 78, 2-((6-chloro-2-(4-methylpiperazin-1-yl)pyrido[3,4-d]pyrimidin-4-yl)amino)-N-(3-(trifluoromethyl)phenyl)ethane-1-sulfonamide] | –
28 | – | < 100 | CNS(=O)(=O)CCNc1nc(N2CCN(C)CC2)nc2cnc(Cl)cc12 [Example 14, 2-((6-chloro-2-(4-methylpiperazin-1-yl)pyrido[34-d]pyrimidin-4-yl)amino)-N-methylethane-1-sulfonamide] | –
29 | – | – | O=S(=O)(CCNc1nc(C2=CCNCC2)nc2cnc(Cl)cc12)Nc1ccccc1 [Example 41, 2-((6-chloro-2-(1,2,3,6-tetrahydropyridin-4-yl)pyrido[3,4-d]pyrimidin-4-yl)amino)-N-phenylethane-1-sulfonamide] | < 100
